Reference: the NIST ThermoML archive (doi:10.1021/je050544m)
± gives the expanded uncertainty stated by the source.

Assay: activity coefficient (dimensionless); of the first substance listed, at infinite dilution; xn = mol fraction of the nth substance listed
Conditions: 101 kPa, Liquid, Chromatography, x1 = 0

| Compound | activity coefficient (303 K) | activity coefficient (323 K) | activity coefficient (343 K) |
| --- | --- | --- | --- |
| C=CCCCC [hex-1-ene] + CCCCCCn1cc[n+](C)c1.F[B-](F)(F)F | 15.9 ± 1.7 | 14.8 ± 1.6 | 14.8 ± 1.6 |
| CCO [ethanol] + CCCCCCn1cc[n+](C)c1.F[B-](F)(F)F | – | 1.47 ± 0.15 | 1.31 ± 0.13 |
| CCC(C)=O [butanone] + CCCCCCn1cc[n+](C)c1.F[B-](F)(F)F | – | 1.14 ± 0.12 | 1.21 ± 0.12 |
| CC(C)CC(C)(C)C [2,2,4-trimethylpentane] + CCCCn1cc[n+](C)c1.F[B-](F)(F)F | 145 ± 15 | 127 ± 13 | 125 ± 13 |
| C1CCCCC1 [cyclohexane] + CCCCn1cc[n+](C)c1.F[B-](F)(F)F | 44.9 ± 4.7 | 38.4 ± 4 | 32.8 ± 3.5 |
| c1ccccc1 [benzene] + CCCCn1cc[n+](C)c1.F[B-](F)(F)F | 2.39 ± 0.25 | 2.43 ± 0.26 | 2.48 ± 0.26 |
| CCCCCCC [heptane] + CCCCCCCC[n+]1ccn(C)c1.F[B-](F)(F)F | 16.7 ± 1.8 | 16.3 ± 1.7 | 15.2 ± 1.6 |
| CC(C)O [propan-2-ol] + CCCCn1cc[n+](C)c1.F[B-](F)(F)F | – | 2.47 ± 0.11 | 2.17 ± 0.1 |
| CCCCCC [hexane] + CCCCn1cc[n+](C)c1.F[B-](F)(F)F | 93.4 ± 9.8 | 76.5 ± 8.1 | 67.5 ± 7.1 |
| CO [methanol] + CCn1cc[n+](C)c1.F[B-](F)(F)F | 0.43 ± 0.05 | 0.43 ± 0.05 | 0.42 ± 0.05 |
| ClCCCl [1,2-dichloroethane] + CCn1cc[n+](C)c1.F[B-](F)(F)F | – | 1.32 ± 0.14 | 1.37 ± 0.14 |
| CCCCCCC [heptane] + CCn1cc[n+](C)c1.F[B-](F)(F)F | 202 ± 21 | 173 ± 18 | 139 ± 15 |
| CC(C)CC(C)(C)C [2,2,4-trimethylpentane] + CCn1cc[n+](C)c1.F[B-](F)(F)F | 222 ± 23 | 168 ± 18 | 162 ± 17 |
